{"source": "patent US11707447B1", "molecular_target": "T1, 5-HT1A receptor (Homo sapiens, UniProt P08908)", "T1 construct": "host or cells: CHO-K1 (co-expressing Ga15)", "T1 sequence (P08908 1-422)": "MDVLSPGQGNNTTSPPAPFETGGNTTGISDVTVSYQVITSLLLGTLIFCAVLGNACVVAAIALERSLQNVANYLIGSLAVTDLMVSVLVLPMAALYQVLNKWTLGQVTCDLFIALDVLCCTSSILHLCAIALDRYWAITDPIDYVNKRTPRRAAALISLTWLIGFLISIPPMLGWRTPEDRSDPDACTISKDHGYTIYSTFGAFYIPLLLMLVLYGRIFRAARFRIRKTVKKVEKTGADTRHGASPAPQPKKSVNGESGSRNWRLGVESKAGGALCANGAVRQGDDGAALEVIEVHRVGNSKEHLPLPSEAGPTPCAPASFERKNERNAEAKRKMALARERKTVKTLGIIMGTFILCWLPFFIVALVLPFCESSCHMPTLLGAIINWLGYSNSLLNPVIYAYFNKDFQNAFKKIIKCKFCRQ", "assay": "cAMP-Glo assay in +5-HT1A / -5-HT1A CHO-K1 cells", "assay_type": "cell-based"}
{"compound": "CN(C)CCc1c[nH]c2cccc(OC(=O)SCc3ccccc3)c12", "note": "[E(VI)]", "values": [{"measurement": "EC50 at 5-HT1A", "setting": "cAMP assay, forskolin-stimulated +5-HT1A cells", "value": "neither molecule engaged 5-HT1A with sufficient potency to calculate an EC50 value"}, {"measurement": "cAMP level / 5-HT1A receptor modulation (in words)", "setting": "forskolin-stimulated +5-HT1A vs -5-HT1A cells, increasing ligand", "value": "mild receptor modulation at higher ligand concentrations"}]}
